For experiment [1], the target named is Cyclin-dependent kinase 4/cyclin D (Homo sapiens, UniProt P11802). As to the kind of experiment: Inhibition of CDK4-Cyclin D. It is filed as protein-complex assay.
Experiment [2] addresses Cyclin-dependent kinase 1/cyclin B (Homo sapiens, UniProt P06493). The experiment can be described thus: Inhibition of Cyclin-dependent kinase 1-cyclin B. It counts as protein-complex assay.
In experiment [3] the target is Cyclin-dependent kinase 2/cyclin E (Homo sapiens, UniProt P24941). The experiment can be described thus: Inhibitory activity against Cyclin-dependent kinase 2-cyclin E. It is filed as protein-complex assay.
A further experiment has as its system A2780. As to the kind of experiment: Cytotoxic effect on ovarian cancer cell line (A2780). It is filed as functional, cell-based. The following applies: Homo sapiens.

SMILES strings stand for the structures. Some results are limits rather than exact numbers.

One may read the IC50 as the midpoint of a concentration-inhibition curve. Lower therefore signals inhibition by little substance. For `CCCCOc1c(C(=O)c2ccccc2F)cnc2[nH]ncc12`, the IC50 in experiment [1] was 24000 nM; in experiment [2], 360 nM; in experiment [3] it was 36 nM. As to `CCCCOc1c(C(=O)c2c(F)cc(Br)cc2F)cnc2[nH]ncc12`, the results for the half-maximal inhibitory concentration (IC50) in experiment [1], in experiment [2] and in experiment [3] were 370 nM, 17 nM and 20 nM, respectively. In turn, `CCCCOc1c(C(C)=O)cnc2[nH]ncc12` showed an IC50 in experiment [3] above 1000 nM. On the same count and under the same terms, for `CCCCOc1c(C(=O)c2cccnc2)cnc2[nH]ncc12` the value was 2400 nM; for `CCCCOc1c(C(=O)c2ccc(C)cc2)cnc2[nH]ncc12`, 210 nM. As for `CCCCOc1c(C(=O)c2c(F)cc(Cl)cc2F)cnc2[nH]ncc12`, the IC50 in experiment [1] is 310 nM; in experiment [2] it was 13 nM; in experiment [3] it was 27 nM. As for `CCCCOc1c(C(=O)Cc2ccccc2)cnc2[nH]ncc12`, the IC50 in experiment [3] was above 1000 nM. As to `CCCCOc1c(C(=O)c2c(F)cccc2F)cnc2[nH]ncc12`, the IC50 in experiment [1] is 21000 nM; in experiment [2], 32 nM; in experiment [3], 64 nM. `CCCCOc1c(C(=O)OC)cnc2[nH]ncc12`: the IC50 in experiment [3] was above 10000 nM. Compound `CCCCOc1c(C(=O)c2ccccc2)cnc2[nH]ncc12` [SQ-67563] registered an IC50 in experiment [1] above 25000 nM. The compound `CCCCOc1c([S+]([O-])c2ccccc2)cnc2[nH]ncc12` (stereo not given) displayed a concentration for half-maximal inhibition (IC50) in experiment [3] of 340 nM.

For the compound `CCCCOc1c(C(=O)c2c(F)cc(OC)cc2F)cnc2[nH]ncc12`, the IC50 is 230 nM in experiment [1], 7 nM in experiment [2] and 22 nM in experiment [3]. Compound `CCCCOc1c(C(=O)C2CC2)cnc2[nH]ncc12` showed a half-maximal inhibitory concentration (IC50) in experiment [3] of 2700 nM. For `CCCCOc1c(C(=O)c2cccc(C)c2)cnc2[nH]ncc12`, 660 nM corresponded to half-maximal inhibition in experiment [3] (IC50). In turn, `CCCCOc1c(C(=O)Nc2ccccc2)cnc2[nH]ncc12` displayed an IC50 in experiment [3] of 19000 nM. `CCCCOc1c(C(=O)NCC)cnc2[nH]ncc12`: the half-maximal inhibitory concentration (IC50) in experiment [3] came to 8100 nM. This IC50 is about 2.3-fold lower than that of the compound before.

On to `CCCCOc1c(C(=O)c2nccs2)cnc2[nH]ncc12`, for which the results for the IC50 in experiment [2] and in experiment [3] were 450 nM and 210 nM, respectively. With `CCCCOc1c(C(=O)c2ccco2)cnc2[nH]ncc12`, the IC50 in experiment [2] is 280 nM; in experiment [3], 180 nM. For the compound `CCCCOc1c(C(=O)c2c(F)cc(C)cc2F)c[nH]c2nncc1-2`, the IC50 came to 230 nM in experiment [1], 6 nM in experiment [2], 760 nM in the experiment on A2780 and 9 nM in experiment [3].

Turning to `CCCCOc1c(C(=O)c2c(C)cc(C)cc2C)cnc2[nH]ncc12`, in experiment [3], the IC50 is above 1000 nM. Consider `CCCCOc1c(S(=O)(=O)c2ccccc2)cnc2[nH]ncc12`, for which inhibition in experiment [3] was half-maximal at 520 nM (IC50). In the case of `CCCCOc1c(C(=O)c2ccccc2C)cnc2[nH]ncc12`, the results for the 50% inhibitory concentration (IC50) in experiment [2] and in experiment [3] were 410 nM and 730 nM, respectively. For `CCCCOc1c(C(=O)c2cccs2)cnc2[nH]ncc12`, in that order: 230 nM and 200 nM.

(Values after ChEMBL document CHEMBL1136116 (Bioorg Med Chem Lett, 2003).)
